The source of these data is patent US10590106B2, “Certain chemical entities, compositions, and methods” (NeuPharma, Inc., priority 2012, dated 2020).

One experiment has as its system Colo205 tumor xenograft. The experiment can be described thus: Inhibition of tumor growth in Colo205 tumor xenograft model. It counts as in vivo, BALB/c female nude mice. The settings on record: 30 mg/kg, qd × 14, i.p. As for the experimental part: Cells were implanted in BALB/c female nude mice and grown as tumor xenografts. When tumors achieved 120-200 mm^3, mice were assigned into treatment and control groups using randomized block design based upon their tumor volumes. Each group contained 6 tumor-bearing mice. Tumors were measured twice weekly in two dimensions using a caliper, and the tumor volume was calculated from two-dimensional measurements using the equation V=0.5×a×b^2 where a and b are the long and short diameters of the tumor, respectively. Relative tumor volume (RTV) was defined as TVt/TVi, the ratio of the volume on a given day (TVt) and the volume at the start of treatment (TVi). Relative tumor growth rate (T/C) was defined as RTVT/RTVC, the ratio of relative tumor volume of treatment group (RTVT) and relative tumor volume of control group (RTVC) on a given day. Inhibition of tumor growth in a Colo205 tumor xenograft model is shown below in Table 10 for a compound of Table 1.

The next experiment has as its target BRAF (Homo sapiens (Human), UniProt P15056). The experiment can be described thus: Inhibitory activity against kinase BRAF, Z'-LYTE method (Invitrogen). It counts as biochemical. To be noted: 1 μM compound. In outline:
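Z′-LYTE FRET kinase assay in 50 mM HEPES pH 7.5, 10 mM MgCl2, 1 mM EGTA, 0.01% Brij-35, with a 60 min RT kinase reaction, then 60 min development. IC50 was taken from % inhibition versus concentration. Values may be given as % inhibition at 1 μM.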

The next experiment deals with A549 cells. The experiment in a line: Inhibition of cancer cell growth, MTT or MTS assay, A549. It counts as cell-based. To be noted: Homo sapiens, 72 h incubation. The gist of the method:
(§1)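 Cells in RPMI 1640 with 10% FBS were seeded at ~2000 (A375) or 4000 (A549, Colo205) per well, grown 24 h, then exposed to compound 72 h at 1% final DMSO. Read-out by MTT (570 nm) or MTS (490 nm). IC50 from concentration vs percent inhibition, triplicates.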

The next experiment concerns Colo205 cells. The experiment can be described thus: Inhibition of cancer cell growth, MTT or MTS assay, Colo205. The settings on record: Homo sapiens, COLO 205; 72 h incubation. Type of experiment: cell-based. How it is done: Inhibition of cell growth by compounds was measured using MTT or MTS assay. Tumor cell lines were purchased from ATCC (American Type Culture Collection, Manassas, Va.). All cell lines were maintained in RPMI 1640 (Hyclone) supplemented with 10% fetal bovine serum (FBS, Hyclone), glutamine (2 mM, Hyclone), and antibiotics (penicillin 100 U/mL and streptomycin 50 μg/mL) at 37° C. in a humidified atmosphere of 5% CO2 in air. Taxol (as a positive control, Sigma) and compounds were dissolved in DMSO (Sigma), and the final concentration of DMSO in the medium was 1%. Tumor cells were plated in 96-well plates at densities of about 2000 (A375) or 4000 (A549 and Colo205) cells/well of a 96-well plate and allowed to adhere/grow for 24 h. They were then treated with various concentrations of drug and incubated for 72 h. For MTT method, medium was then removed by inverting and tapping the plates. 100 μL of MTT (0.5 mg/ml) was added to each well followed by an incubated at 37° C. for 4 h. MTT was then removed and 200 μL of DMSO was added to each well, and the ODs at 570 nm were measured after a 5 second shaking cycle in a 96-well spectrophotometer. For MTS method, 20 μL MTS (CellTiter 96 Aqueous One Solution, Promega) was added to each well followed by an incubated at 37° C. for 2-4 h, solutions were then directly put in a 96-well spectrophotometer, and the ODs at 490 nm were measured.
All concentrations of compounds were tested in triplicate and controls were averaged over 4 wells. IC50 was calculated by plotting the concentration of compound vs the percentage of inhibition in treated wells using GraphPad Prism 5. […] The scale utilized in Tables […] is as follows: +++ less than 1000 nM; ++ between 1000 nM and 5000 nM; and + greater than 5000 nM. The scale utilized in Table 8 is as follows: +++ less than 2000 nM; ++ between 2000 nM and 5000 nM; and + greater than 5000 nM.
A general note: Tetrazolium assays rely on reduction of a dye to a coloured formazan, in cell work by metabolically active cells.

A further experiment deals with KDR (VEGFR2) (Homo sapiens (Human), UniProt P35968). The experiment in a line: Inhibitory activity against kinase KDR, Z'-LYTE method (Invitrogen). To be noted: 1 μM compound; read-out: Inhibition (% inhibition at 1 μM) against KDR. It counts as biochemical. In outline: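 Human KDR (VEGFR2) kinase inhibition was measured with Invitrogen's Z′-LYTE® method. A 2× mixture of KDR and Tyr 01 peptide is made in 50 mM HEPES pH 7.5, 0.01% BRIJ-35, 10 mM MgCl2, 1 mM EGTA. Each 10 μL reaction holds 0.5-11.7 ng enzyme and 2 μM Tyr 01. It incubates for 1 hour, then 5 μL of Development Reagent B diluted 1:256 is added.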
KDR (VEGFR2), sequence (P35968 20-1356): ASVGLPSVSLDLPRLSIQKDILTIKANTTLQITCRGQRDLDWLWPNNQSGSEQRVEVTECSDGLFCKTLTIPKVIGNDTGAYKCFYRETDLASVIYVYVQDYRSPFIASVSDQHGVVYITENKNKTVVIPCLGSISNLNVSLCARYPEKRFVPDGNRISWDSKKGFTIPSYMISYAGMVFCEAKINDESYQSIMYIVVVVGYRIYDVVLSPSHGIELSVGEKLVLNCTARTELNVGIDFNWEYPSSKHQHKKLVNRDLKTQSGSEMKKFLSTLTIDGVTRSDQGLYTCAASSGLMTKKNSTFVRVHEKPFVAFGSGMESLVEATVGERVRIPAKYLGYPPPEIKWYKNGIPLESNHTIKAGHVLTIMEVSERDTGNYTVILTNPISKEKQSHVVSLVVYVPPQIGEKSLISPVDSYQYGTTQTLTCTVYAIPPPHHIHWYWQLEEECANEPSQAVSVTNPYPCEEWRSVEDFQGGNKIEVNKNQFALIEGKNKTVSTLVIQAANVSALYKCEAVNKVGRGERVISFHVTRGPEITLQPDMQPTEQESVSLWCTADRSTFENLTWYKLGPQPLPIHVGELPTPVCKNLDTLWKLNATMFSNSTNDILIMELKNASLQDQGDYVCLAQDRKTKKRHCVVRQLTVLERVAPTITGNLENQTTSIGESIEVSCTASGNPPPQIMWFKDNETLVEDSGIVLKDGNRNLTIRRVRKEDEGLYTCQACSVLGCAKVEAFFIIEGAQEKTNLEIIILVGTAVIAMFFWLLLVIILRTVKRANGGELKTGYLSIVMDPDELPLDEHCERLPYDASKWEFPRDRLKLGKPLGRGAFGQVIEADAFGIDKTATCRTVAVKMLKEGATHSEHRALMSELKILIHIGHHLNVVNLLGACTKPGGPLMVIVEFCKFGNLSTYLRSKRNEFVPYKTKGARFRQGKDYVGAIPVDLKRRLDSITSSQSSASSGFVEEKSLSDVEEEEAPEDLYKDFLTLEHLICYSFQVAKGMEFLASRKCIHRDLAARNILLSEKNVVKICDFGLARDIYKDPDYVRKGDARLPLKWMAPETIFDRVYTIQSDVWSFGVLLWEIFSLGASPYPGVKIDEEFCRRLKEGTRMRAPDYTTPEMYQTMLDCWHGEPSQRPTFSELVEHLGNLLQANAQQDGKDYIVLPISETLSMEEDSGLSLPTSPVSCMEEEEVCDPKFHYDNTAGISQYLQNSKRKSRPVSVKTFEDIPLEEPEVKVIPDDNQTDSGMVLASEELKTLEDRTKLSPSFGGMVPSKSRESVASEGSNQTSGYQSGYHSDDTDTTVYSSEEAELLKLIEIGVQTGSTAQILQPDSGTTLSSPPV

The next experiment has as its system A375 cells. The experiment in a line: Inhibition of cancer cell growth, MTT or MTS assay, A375. Type of experiment: cell-based. To be noted: Homo sapiens, A-375; 72 h incubation. In outline:
as §1

Another experiment addresses BRAF V600E (Homo sapiens (Human), UniProt P15056, V600E). The experiment in a line: Inhibitory activity against kinase BRAF V600E, Z'-LYTE method (Invitrogen). Type of experiment: biochemical. The settings on record: 1 μM compound; read-out: Inhibition (% inhibition at 1 μM) against BRAF V600E. In outline: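 FRET-based Z′-LYTE peptide-phosphorylation assay in 50 mM HEPES pH 7.5, 0.01% BRIJ-35, 10 mM MgCl2, 1 mM EGTA; kinase reaction 60 min at room temperature, then 60 min development before fluorescence read. IC50 from concentration vs % inhibition; single-point % inhibition tested at 1 μM.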

BRAF V600E, sequence (P15056 whole entry V600E): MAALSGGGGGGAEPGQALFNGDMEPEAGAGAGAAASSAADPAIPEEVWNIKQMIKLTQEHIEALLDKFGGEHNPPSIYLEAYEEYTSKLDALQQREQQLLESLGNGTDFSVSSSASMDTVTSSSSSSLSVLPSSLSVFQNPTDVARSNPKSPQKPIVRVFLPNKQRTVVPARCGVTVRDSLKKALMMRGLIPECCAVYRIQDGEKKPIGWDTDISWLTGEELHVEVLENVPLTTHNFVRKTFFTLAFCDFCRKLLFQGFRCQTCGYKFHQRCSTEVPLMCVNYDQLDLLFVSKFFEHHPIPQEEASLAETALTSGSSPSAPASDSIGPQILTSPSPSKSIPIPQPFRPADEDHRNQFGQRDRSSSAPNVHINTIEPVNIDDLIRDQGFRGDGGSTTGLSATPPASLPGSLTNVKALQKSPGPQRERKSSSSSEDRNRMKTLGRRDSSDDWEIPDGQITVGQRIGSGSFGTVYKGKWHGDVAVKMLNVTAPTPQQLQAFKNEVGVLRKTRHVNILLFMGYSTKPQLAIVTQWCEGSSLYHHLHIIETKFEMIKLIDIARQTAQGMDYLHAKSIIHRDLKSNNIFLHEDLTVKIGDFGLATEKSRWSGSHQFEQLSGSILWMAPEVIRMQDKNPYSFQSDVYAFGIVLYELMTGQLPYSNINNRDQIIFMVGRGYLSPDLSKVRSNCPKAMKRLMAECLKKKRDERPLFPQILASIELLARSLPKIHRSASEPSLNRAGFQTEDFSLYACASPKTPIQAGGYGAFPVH
BRAF, sequence (P15056 whole entry): as the sequence (P15056 whole entry V600E) above, with E600V counted along it

On to `O=C(Nc1ccc(Oc2ccc3ncc(N4CCNCC4)nc3c2)cc1)Nc1ccc(Cl)c(C(F)(F)F)c1` [Compound C089, 1-(4-chloro-3-(trifluoromethyl)phenyl)-3-(4-((3-(piperazin-1-yl)quinoxalin-6-yl)oxy)phenyl)urea], for which the “T/C (relative tumor growth rate)” value in the experiment with Colo205 tumor xenograft is on record as 79%. In the experiment with Colo205 tumor xenograft (after treatment), the “Tumor Volume Post-treatment” value is reported as 768.94 mm^3. Moreover, the “Tumor Volume Pre-treatment” value in the experiment with Colo205 tumor xenograft (before treatment) is given as 233.30 mm^3. Besides, the results for the inhibition at 1 µM at BRAF, at KDR (VEGFR2) and on BRAF V600E were below 70%, above 89% and above 89%, respectively. Also, the results for the concentration for half-maximal inhibition (IC50) in the experiment on A549 cells, with Colo205 cells and in the experiment with A375 cells were below 2000 nM, below 1000 nM and below 1000 nM, respectively.
